# Results as given in patent publication US7416870B2, “Methods of directing C-O bond formation utilizing a type II polyketide synthase system” (Wisconsin Alumni Research Foundation, priority 2002, dated 2008).
# Experiments:
# [1] = test system: NonL; assay: In vitro assay of NonL as a CoA ligase (conversion of acids to CoA esters, HPLC); type: biochemical, Streptomyces griseus
# Excerpt: Expression of nonL and characterization of NonL as a CoA ligase. The nonL gene was amplified from pBS2013 by PCR with forward primer of 5′-[…]-3′ (SEQ ID NO:12) (the NdeI site is underlined) and reverse primer of 3′-[…]-5′ (SEQ ID NO:13)(the EcoRI site is underlined) and cloned as a 1.7-kb NdeI-EcoRI fragment into the same sites of pET28a (Novagen, Madison, Wis.) to yield pBS2023. The expression of nonL in E. coli BL-21 (DE-3) (pBS2023) and purification of the resulting NonL protein by affinity chromatography on Ni-NTA resin were carried out under the standard conditions recommended by Novagen (FIG. 10). The incubation temperature was lowered to 15° C. to improve the solubility.
# For in vitro assay of NonL as a CoA ligase, the complete assay solution (50 μl) consisted of 2 mM ATP, 2 mM CoA, 2 mM (±)-3, 10 mM KCl, 2 mM DTT, 5 mM MgCl2, 50 to 800 nM NonL in 10 mM Tris-HCl, pH 8.0. The reaction mixture was incubated at 30° C. for 2 hr and analyzed by HPLC on an Alltima C18 column (4.6×250 mm, 5μ, 100 Å, Alltech, Deerfield, Ill.). The column was first eluted in 20 mM NH4Ac, pH 5.8, for 5 min, followed by linear gradient from 0% to 50% CH3CN in 20 mM NH4Ac, pH 5.8 for 10 min, and maintained at 50% CH3CN in 20 mM NH4Ac for an additional 10 min, with flow rate of 0.8 ml/min and detection at 260 nm.
# On the basis of its high sequence homology to a family of CoA ligases, the inventors reasoned that NonL, rather than directly contributing to the C—O bond-forming steps, instead activates (±)-3 into CoA esters (±)-2 that are then tetramerized into 1 by the NonJK KSs. To validate this hypothesis, the inventors expressed nonL in E. coli, purified NonL as a His6-tagged fusion protein (FIG. 10), and characterized NonL as a CoA ligase. The inventors monitored the in vitro assay of NonL by HPLC analysis: NonL catalyzes the conversion of (±)-3 to (±)-2, requiring CoA and ATP as co-substrates. Under the condition examined, 80% of (±)-3 was converted to (±)-2 in 2 hrs, confirming that NonL recognizes both (+)- and (−)-3 as substrates (FIG. 7). The identity of (±)-2 was verified by ESI-MS, yielding a characteristic (M−2H)^2− ion at m/z=474.7, consistent with the molecular formula of C31H52N7O19P3S.
# In this particular experiment, the inventors expanded the category of synthetic 8 derivatives to determine the degree of flexibilities of each process in macrotetrolide biosynthesis. With minor modifications in the previously described method, (±)-8-n-propyl-nonactate (8), (±)-epi-8-n-propyl-nonactate (A), (±)-2-n-propyl-nonactate (B), and (±)-epi-2-n-propyl-nonactate (C) were prepared. These four compounds were tested for the CoA-activated by using purified NonL. […] The chromosomal DNA fragment encompassing nonJ and nonL from S. griseus DSM40695 was subcloned into pIJ4123 under the control of thiostrepton inducible promoter (tipAp) to generate pBS2045 that was introduced into S. lividans TK-24. For pIJ4123, see the reference; Takano, E.; White, J.; Thompson, C. J.; Bibb, M. J. Gene 1995, 160, 133.
# [2] = test system: NonJ; assay: Dimer formation with cell-free extract of S. lividans (pBS2045) harboring nonL and nonJ; type: biochemical, Streptomyces griseus; conditions: CFE of S. lividans (pBS2045)
# Method: Cell-free extract (CFE) preparation: S. lividans (pBS2045) were grown on Yeast Extract-Malt Extract (YEME, 34% sucrose) media supplemented with kanamycin (50 μg/ml), at 30° C. and 300 rpm for 1 d and added with thiostrepton (5 μg/ml). The thiostrepton-treated culture was maintained in the same condition for 1 d and then harvested by centrifugation (13,600 g, 20 min, 4° C.). Cell were lysed in 30 ml of 100 mM sodium phosphate buffer (pH, 8.0)-1 mM EDTA-50 mM KCl-10% glycerol with lysozyme (2 mg/ml) for 30 min at 4° C., sonicated for thirty 10-sec bursts at 300 W with a 30-sec cooling period between each burst. […]
# Conditions for CFE-assay and chemical analysis: The assay solution consisted of 1 to 2 mM each of (±)-6, CoA, and ATP and 0.8 mg/ml of protein in 10 mM Tris-Cl (pH, 8.0)-10 mM KCl-2 mM DTT-5 mM MgCl2, and incubated at 30° C. for 1 h to 3 hs. […] The organic layer was analyzed for 1 by Thin-Layer Chromatography (TLC), Evaporative Light-Scattering Detector (ELSD)-High Performance Liquid Chromatography (HPLC), and positive Matrix-Assisted Laser Desorption Ionization (MALDI)-Mass Spectrometry (MS) analysis as previously described.^5d The aqueous layer was analyzed by HPLC with UV-detection, from which relevant peaks were collected and subjected to negative MALDI-MS analysis. […]
# Chain of NonJ (as listed by the source): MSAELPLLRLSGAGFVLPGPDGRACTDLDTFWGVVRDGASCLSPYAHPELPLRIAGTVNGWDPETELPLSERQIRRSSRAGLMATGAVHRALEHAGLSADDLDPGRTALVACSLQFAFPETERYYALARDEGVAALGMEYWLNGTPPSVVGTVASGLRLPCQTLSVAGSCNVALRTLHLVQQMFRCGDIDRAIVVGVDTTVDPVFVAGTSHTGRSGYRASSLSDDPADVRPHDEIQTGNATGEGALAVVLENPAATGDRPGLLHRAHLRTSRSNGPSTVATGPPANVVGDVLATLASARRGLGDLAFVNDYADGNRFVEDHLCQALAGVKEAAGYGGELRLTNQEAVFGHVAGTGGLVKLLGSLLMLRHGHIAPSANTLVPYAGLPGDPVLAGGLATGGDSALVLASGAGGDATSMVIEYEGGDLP
Molecule,conversion into CoA derivative by purified NonL [1],dimer (dimeric CoA ester) formation by NonJ [2],"conversion of (±)-3 to (±)-2 by NonL ([1]; in 2 hrs, 30° C., 2 mM ATP, 2 mM CoA, 2 mM (±)-3) [%]"
(±)-epi-8-n-propyl-nonactate,efficiently converted,no dimeric A-CoA was found,–
(±)-8-n-propyl nonactate [compound 8],efficiently converted,converted the dimeric 8-CoA,–
(±)-epi-2-n-propyl-nonactate,no conversion was evident,–,–
"CC(O)CC1CCC(C(C)C(=O)O)O1 (racemic) [(±)-3, nonactic acid]",–,–,80
(±)-2-n-propyl-nonactate [B],no conversion was evident,–,–
